Data reported in paper PMC7470113, “Design, synthesis and biological evaluation of edaravone derivatives bearing the N-benzyl pyridinium moiety as multifunctional anti-Alzheimer’s agents” (Journal of Enzyme Inhibition and Medicinal Chemistry, 2020).
Where two headings read alike, the source gives them in different places.

How the values were obtained:
[1] = DPPH+ free radical scavenging antioxidant assay
Description: Antioxidant activity was studied with the DPPH^+ free radical scavenging assay[46]^,[47]. DPPH^+ and trolox were purchased from Sigma-Aldrich®. The following method was employed, as previously described, to determine the antioxidant activity of the test compounds. Each well of a 96 well plate, contained the following: 180 µL of 0.12 mM DPPH^+ dissolved in methanol and 20 µL of either test compound, control (trolox) or blank (DMSO). The test compounds and control were dissolved in DMSO and added to the well to yield various concentrations (1000 µM, 100 µM, 10 µM, 1 µM and 0.1 µM). […] The well plate was incubated at 25 °C for 30 min within a dark space. […] The quantity of DMSO per well accumulated to below 0.01%[45]. […] The percentage activity was calculated using the following equation: [(absorbance of blank − absorbance of test compounds)/absorbance of blank × 100)]. All data analysis was conducted on GraphPad Prism version 8.2.1 for Mac OS, GraphPad Software (San Diego, California, USA).
The 2,2-diphenyl-1-picrylhydrazyl (DPPH^+) assay was employed to determine the antioxidant ability of the synthesised compounds.

eeAChE = target: T1, eeAChE (Electrophorus electricus, UniProt O42275); experiment: Cholinesterase inhibition assay (modified Ellman's method), eeAChE; format: biochemical; settings: for IC50: eeAChE, Ellman, 25 °C, triplicate, read-out: AChE IC50; for SI AChE (AChE selectivity index = IC50(eqBuChE)/IC50(eeAChE)): ratio BuChE/AChE
T1 construct: purchased Sigma-Aldrich
Description: (§1) . […] The test compounds and control were dissolved in DMSO and added to the well to yield various concentrations (1000 µM, 100 µM, 10 µM, 1 µM, 0.1 µM and 0.01 µM). The quantity of DMSO per well accumulated to below 0.01%[45]. Each concentration of test compound and control was conducted in triplicate to ensure consistent results. The well-plates were then incubated at 25 °C for 10 min. Thereafter, 30 µL of either the ATCI or BTCI substrate was added to each well. The plate was then placed inside a Rayto 6500 spectrometer and the absorbance was read at 405 nm every 45 s for 5 min. The percentage activity was calculated using the following equation: [(absorbance of blank − absorbance of test compounds)/absorbance of blank × 100)]. All data analysis was conducted on GraphPad Prism version 8.2.1 for Mac OS, GraphPad Software (San Diego, CA, USA)
(§2) The inhibitory activities of the synthesised compounds were evaluated using eeAChE (electric eel) and eqBuChE (equine serum) according to a modified method of Ellman[44]. […].

eqBuChE = target: T2, eqBuChE (Equus caballus, UniProt P81908); experiment: Cholinesterase inhibition assay (modified Ellman's method), eqBuChE; format: biochemical; settings: 25 °C, triplicate, read-out: BuChE IC50
T2 construct: purchased Sigma-Aldrich; host or cells: equine serum
Description: as §1, §2

[2] = parameters: method as in PMID 29907205; settings: read-out: DPPH+ IC50 (antioxidant activity of edaravone); cited from earlier work
[3] = 0.12 mM DPPH+ in methanol, 30 min, 25 °C, 517 nm, read-out: DPPH+ IC50

T2 sequence (P81908 whole entry): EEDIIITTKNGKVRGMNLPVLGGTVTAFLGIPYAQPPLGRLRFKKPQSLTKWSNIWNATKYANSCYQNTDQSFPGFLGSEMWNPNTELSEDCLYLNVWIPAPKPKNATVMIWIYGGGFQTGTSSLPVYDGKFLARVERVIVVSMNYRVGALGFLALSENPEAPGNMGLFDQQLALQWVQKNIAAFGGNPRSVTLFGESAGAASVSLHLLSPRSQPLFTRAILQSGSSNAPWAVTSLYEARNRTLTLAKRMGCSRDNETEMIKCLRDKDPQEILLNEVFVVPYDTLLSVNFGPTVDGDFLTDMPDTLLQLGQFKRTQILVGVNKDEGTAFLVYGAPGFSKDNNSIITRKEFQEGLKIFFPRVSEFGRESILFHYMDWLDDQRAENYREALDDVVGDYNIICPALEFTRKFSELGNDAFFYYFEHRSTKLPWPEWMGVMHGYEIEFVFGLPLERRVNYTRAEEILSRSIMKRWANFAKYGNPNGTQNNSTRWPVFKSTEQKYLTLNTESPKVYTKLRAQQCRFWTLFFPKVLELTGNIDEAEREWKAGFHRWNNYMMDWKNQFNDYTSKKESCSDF
T1 sequence (O42275 24-633): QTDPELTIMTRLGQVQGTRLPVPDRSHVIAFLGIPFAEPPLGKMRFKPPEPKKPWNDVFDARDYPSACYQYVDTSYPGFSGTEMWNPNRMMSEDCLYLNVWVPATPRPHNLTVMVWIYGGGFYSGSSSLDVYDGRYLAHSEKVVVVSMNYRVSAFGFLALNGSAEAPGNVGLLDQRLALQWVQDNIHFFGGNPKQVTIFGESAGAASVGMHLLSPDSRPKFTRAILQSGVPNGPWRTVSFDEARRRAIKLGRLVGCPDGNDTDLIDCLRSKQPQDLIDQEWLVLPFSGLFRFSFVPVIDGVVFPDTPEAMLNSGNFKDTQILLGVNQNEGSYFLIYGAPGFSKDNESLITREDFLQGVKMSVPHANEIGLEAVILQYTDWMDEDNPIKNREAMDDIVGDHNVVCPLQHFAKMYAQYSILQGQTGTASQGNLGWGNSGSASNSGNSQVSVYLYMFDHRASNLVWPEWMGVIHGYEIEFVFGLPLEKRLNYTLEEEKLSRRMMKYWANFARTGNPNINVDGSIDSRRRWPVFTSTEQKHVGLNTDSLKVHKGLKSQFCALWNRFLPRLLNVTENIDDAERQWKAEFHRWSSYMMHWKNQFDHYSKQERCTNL

`CC1=NN(c2ccc(C(=O)O)cc2)C(=O)C1` [Compound 1, Edaravone-COOH] showed an IC50 [1, 3] of 45.7 µM.
For `CC1=NN(c2ccc(C(=O)NCc3ccncc3)cc2)C(=O)C1` [Compound 3, 4–(3-Methyl-5-oxo-4H-pyrazol-1-yl)-N-(pyridine-4-ylmethyl)benzamide], the IC50 (eeAChE) was > 100 µM, the IC50 (eqBuChE) was > 1000 µM and the IC50 [1, 3] was 12.5 µM.
For `CC1=NN(c2ccc(C(=O)NCc3cc[n+](Cc4ccccc4)cc3)cc2)C(=O)C1` [Compound 5a, 1-Benzyl-4-({[4–(3-methyl-5-oxo-4H-pyrazol-1-yl)phenyl]foramido}methyl)pyridin-1-ium bromide], the IC50 (eeAChE) was 30 µM, the “SI AChE (AChE selectivity index = IC50(eqBuChE)/IC50(eeAChE))” value (eeAChE) was >33 and the IC50 (eqBuChE) was > 1000 µM. The IC50 [1, 3] was 22.9 µM.
For `CC1=NN(c2ccc(C(=O)NCc3cc[n+](Cc4ccccc4F)cc3)cc2)C(=O)C1` [Compound 5b, 1-[(2-Fluorophenyl)methyl]-4-({[4–(3-methyl-5-oxo-4H-pyrazol-1-yl)phenyl]foramido}methyl)pyridin-1-ium bromide], the IC50 (eeAChE) was 1.2 µM, the IC50 (eqBuChE) was > 1000 µM and the IC50 [1, 3] was 28.8 µM.
With `CC1=NN(c2ccc(C(=O)NCc3cc[n+](Cc4cccc(F)c4)cc3)cc2)C(=O)C1` [Compound 5c, 1-[(3-Fluorophenyl)methyl]-4-({[4–(3-methyl-5-oxo-4H-pyrazol-1-yl)phenyl]foramido}methyl)pyridin-1-ium bromide] the IC50 (eeAChE) was 4.6 µM, the “SI AChE (AChE selectivity index = IC50(eqBuChE)/IC50(eeAChE))” value (eeAChE) was 201 and the IC50 (eqBuChE) was 926 µM. The IC50 [1, 3] was 25 µM.
In the case of `CC1=NN(c2ccc(C(=O)NCc3cc[n+](Cc4ccc(F)cc4)cc3)cc2)C(=O)C1` [Compound 5d, 1-[(4-Fluorophenyl)methyl]-4-({[4–(3-methyl-5-oxo-4H-pyrazol-1-yl)phenyl]foramido}methyl)pyridin-1-ium bromide], the IC50 (eeAChE) is reported as 3.6 µM, the “SI AChE (AChE selectivity index = IC50(eqBuChE)/IC50(eeAChE))” value (eeAChE) is reported as >278 and the IC50 (eqBuChE) is reported as > 1000 µM. For the same compound, the IC50 [1, 3] was 11.5 µM.
In the case of `CC1=NN(c2ccc(C(=O)NCc3cc[n+](Cc4ccccc4Cl)cc3)cc2)C(=O)C1` [Compound 5e, 1-[(2-Chlorophenyl)methyl]-4-({[4–(3-methyl-5-oxo-4H-pyrazol-1-yl)phenyl]foramido}methyl)pyridin-1-ium bromide], the IC50 (eeAChE) is reported as 1.9 µM, the “SI AChE (AChE selectivity index = IC50(eqBuChE)/IC50(eeAChE))” value (eeAChE) is reported as 468 and the IC50 (eqBuChE) is reported as 890 µM. The IC50 [1, 3] was 13.8 µM.
With `CC1=NN(c2ccc(C(=O)NCc3cc[n+](Cc4cccc(Cl)c4)cc3)cc2)C(=O)C1` [Compound 5f, 1-[(3-Chlorophenyl)methyl]-4-({[4–(3-methyl-5-oxo-4H-pyrazol-1-yl)phenyl]foramido}methyl)pyridin-1-ium bromide] the IC50 (eeAChE) was 3.3 µM, the “SI AChE (AChE selectivity index = IC50(eqBuChE)/IC50(eeAChE))” value (eeAChE) was 270 and the IC50 (eqBuChE) was 891 µM. For the same compound, the IC50 [1, 3] was 13.1 µM.
In the case of `CC1=NN(c2ccc(C(=O)NCc3cc[n+](Cc4ccccc4Br)cc3)cc2)C(=O)C1` [Compound 5g, 1-[(2-Bromophenyl)methyl]-4-({[4–(3-methyl-5-oxo-4H-pyrazol-1-yl)phenyl]foramido}methyl)pyridin-1-ium bromide], the IC50 (eeAChE) is reported as 3.5 µM, the “SI AChE (AChE selectivity index = IC50(eqBuChE)/IC50(eeAChE))” value (eeAChE) is reported as 46 and the IC50 (eqBuChE) is reported as 160 µM. It also gave an IC50 [1, 3] of 19 µM and an IC50 ([1]; supplement, dose response curves, read-out: Antioxidant activity (DPPH+) dose response curve IC50) of 19 µM.
For `CC1=NN(c2ccc(C(=O)NCc3cc[n+](Cc4cccc(Br)c4)cc3)cc2)C(=O)C1` [Compound 5h, 1-[(3-Bromophenyl)methyl]-4-({[4–(3-methyl-5-oxo-4H-pyrazol-1-yl)phenyl]foramido}methyl)pyridin-1-ium bromide], the IC50 (eeAChE) was > 100 µM, the IC50 (eqBuChE) was > 1000 µM and the IC50 [1, 3] was 13.3 µM.
For `CC1=NN(c2ccc(C(=O)NCc3cc[n+](Cc4ccc(Br)cc4)cc3)cc2)C(=O)C1` [Compound 5i, 1-[(4-Bromophenyl)methyl]-4-({[4–(3-methyl-5-oxo-4H-pyrazol-1-yl)phenyl]foramido}methyl)pyridin-1-ium bromide], the IC50 (eeAChE) was 11.5 µM, the “SI AChE (AChE selectivity index = IC50(eqBuChE)/IC50(eeAChE))” value (eeAChE) was >87 and the IC50 (eqBuChE) was > 1000 µM. The IC50 [1, 3] was 18.1 µM.
With `CC1=NN(c2ccc(C(=O)NCc3cc[n+](Cc4ccccc4C)cc3)cc2)C(=O)C1` [Compound 5j] the IC50 (eeAChE) was 19.9 µM, the “SI AChE (AChE selectivity index = IC50(eqBuChE)/IC50(eeAChE))” value (eeAChE) was 32 and the IC50 (eqBuChE) was 630 µM. For the same compound, the IC50 [1, 3] was 9.5 µM.
For `CC1=NN(c2ccc(C(=O)NCc3cc[n+](Cc4cccc(C)c4)cc3)cc2)C(=O)C1` [Compound 5k], the IC50 (eeAChE) was 69.1 µM, the “SI AChE (AChE selectivity index = IC50(eqBuChE)/IC50(eeAChE))” value (eeAChE) was >15 and the IC50 (eqBuChE) was > 1000 µM. It also gave an IC50 [1, 3] of 27.5 µM.
For `CC1=NN(c2ccc(C(=O)NCc3cc[n+](Cc4ccc(C)cc4)cc3)cc2)C(=O)C1` [Compound 5l], the IC50 (eeAChE) was 95.5 µM, the “SI AChE (AChE selectivity index = IC50(eqBuChE)/IC50(eeAChE))” value (eeAChE) was >11 and the IC50 (eqBuChE) was > 1000 µM. For the same compound, the IC50 [1, 3] was 14.5 µM.
For `CC1=NN(c2ccccc2)C(=O)C1` [Edaravone], the IC50 [2] is listed as 4.7 µM.
For `Cc1c(C)c2c(c(C)c1O)CCC(C)(C(=O)O)O2` (centres unmarked) [Trolox, reference compound], the IC50 [1, 3] was 13.1 µM.
